Source: US10118942B2, “Toll-like receptor 2 ligands and methods of making and using thereof” (H. LEE MOFFITT CANCER CENTER AND RESEARCH INSTITUTE, INC., priority 2015, dated 2018)
pEC50, pIC50, pKi: −log10 of the molar value. Entries after “also recorded” stand apart in the source; their conditions may differ. Read-outs that look alike come from different tables or passages of the source.

What was measured:
TLR2 [1] = molecular target: T1, TLR2 (Homo sapiens, UniProt O60603); assay: In cyto Europium TRF competition binding assay; parameters: SU.86.86 pancreatic cells with endogenous expression of TLR2 were used for the assay; host or cells: SU.86.86 pancreatic adenocarcinoma cells; conditions: competition with 90 nM Eu-labeled compound 11, SU.86.86 cells, 1 h 37° C.; read-out: TLR2 Binding Affinity (Ki)
Procedure: Europium Time-Resolved Fluorescence (TRF) binding assays were performed as described in Handle et al. with slight modifications using SU.86.86 cells plated in 96-well black plates with white opaque wells (PerkinElmer) (Handl et al., Lanthanide-based time-resolved fluorescence of in cyto ligand-receptor interactions. Anal Biochem 2004, 330(2):242-50; Handl et al., Development of a lanthanide-based assay for detection of receptor-ligand interactions at the delta-opioid receptor. Anal Biochem 2005, 343(2):299-307; Josan et al., Solid-phase synthetic strategy and bioevaluation of a labeled delta-opioid receptor ligand Dmt-Tic-Lys for in vivo imaging. Org Lett 2009, 11(12):2479-82). Cells were grown in the 96-well plates for 2 days reaching approximately 80% confluency. Competition binding assays were performed to test the TLR2 binding specificity of the test ligand using SU.86.86 cells. On the day of the experiment, the cell culture media was aspirated and 50 μL of nonlabeled test ligand was added in a series of decreasing concentrations (1 μM to 0.01 nM) followed by 50 μL of the competing Eu-labeled ligand 11 (Huynh et al., Novel Toll-like Receptor 2 Ligands for Targeted Pancreatic Cancer Imaging and Immunotherapy. J Med Chem 2012) at a fixed concentration of 90 nM. Cells were incubated with labeled and unlabeled ligands for 1 h at 37° C. Following incubation, cells were washed three times to remove unbound ligand. Next, 100 μL of DELFIA Enhancement Solution (PerkinElmer) was added to each well. Cells were incubated for 30 min at 37° C. prior to reading. The plates were read on PerkinElmer VICTOR X4 Multilabel reader using the standard Europium TRF protocol. To determine the mean statistical analysis was performed using GraphPad Prism software. Binding of the monoacyl TLR2 ligand (compound 14 of Table 2) was tested using the (Eu)DTPA chelate version of the diacyl TLR2 ligand (compound 11 used in Huynh et al, Id.) in a time-resolved fluorescence competition binding assay. SU.86.86 pancreatic cells with endogenous expression of TLR2 were used for the assay.
Target sequence in this assay (O60603 21-784): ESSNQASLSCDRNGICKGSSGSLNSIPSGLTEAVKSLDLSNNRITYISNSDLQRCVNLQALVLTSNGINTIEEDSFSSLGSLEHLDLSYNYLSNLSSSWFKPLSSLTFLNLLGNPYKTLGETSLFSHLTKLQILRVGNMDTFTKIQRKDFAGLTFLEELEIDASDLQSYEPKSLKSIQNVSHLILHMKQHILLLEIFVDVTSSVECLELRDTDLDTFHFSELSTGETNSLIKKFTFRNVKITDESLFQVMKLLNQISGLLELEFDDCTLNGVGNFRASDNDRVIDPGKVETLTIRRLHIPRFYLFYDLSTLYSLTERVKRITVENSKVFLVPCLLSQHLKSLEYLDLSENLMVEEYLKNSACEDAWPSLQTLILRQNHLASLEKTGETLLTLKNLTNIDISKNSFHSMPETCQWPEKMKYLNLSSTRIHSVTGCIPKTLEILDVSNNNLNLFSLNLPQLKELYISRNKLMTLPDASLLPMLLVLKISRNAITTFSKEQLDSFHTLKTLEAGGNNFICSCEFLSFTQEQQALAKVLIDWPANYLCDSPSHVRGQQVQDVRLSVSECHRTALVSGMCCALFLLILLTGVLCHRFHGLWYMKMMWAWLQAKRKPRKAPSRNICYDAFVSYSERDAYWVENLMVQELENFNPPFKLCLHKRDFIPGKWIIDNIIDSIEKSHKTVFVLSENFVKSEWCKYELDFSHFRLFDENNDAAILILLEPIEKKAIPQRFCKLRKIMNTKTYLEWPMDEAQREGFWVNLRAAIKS

[2] = system: TLR2 expressing human pancreatic tumor xenografts (SU.86.86 cells); assay: In vivo TLR2 selectivity (blocking) fluorescence imaging; parameters: species or system nude mice
Procedure: Female athymic nude mice 6-8 weeks old (Harlan) bearing human pancreatic tumor xenografts of SU.86.86 cells on the right flank were used. Mouse weights and tumor volumes were determined using caliper measurements and the formula: volume (mm3)=(length×width^2)/2. Images were acquired when the tumors reached an average size of 500 mm^3. For the blocked group, a co-injection of 100 nmol/kg of the fluorescently labeled Compound 16 plus 2 μmol/kg Pam2CSK4 (a 20-fold excess) was administered via tail vein injection; for the unblocked group, 100 nmol/kg Compound 16 was administered. Fluorescence images were acquired at time 0 and 24 h using the Caliper Xenogen IVIS200 system (PerkinElmer) with the 710-760 nm excitation and 810-875 nm emission filter set. The fluorescence was quantified using Living Image software, in which the quantified signals were corrected for both instrument and mouse background subtractions. The quantified fluorescence was then plotted using GraphPad Prism software and underwent statistical analysis using Student's t-test.

TLR2 [3] = molecular target: T1, TLR2; assay: In vitro TLR2 functional bioassay (NF-κB luciferase reporter); type: cell-based; conditions: HEK-293/hTLR2 cells; for agonist activity compared to TLR2 agonist controls (Pam2CSK4, Pam3CSK4, HKLM): all at 1 μg/mL
Procedure: The in vitro TLR2 functional bioassay was developed and optimized for use in high-throughput screening of soluble compound libraries to identify both TLR2 agonists and antagonists. The bioassay measures the induction of NF-κB signaling via TLR2 in HEK-293/hTLR2 cells (Invivogen) and parental HEK-293 cells as a negative control. Cells were seeded at a density of 40,000 per well using a WellMate microplate dispenser (Thermo Fisher Scientific/Matrix) in black 96-well plates with opaque white wells (PerkinElmer, Waltham, Mass.) and then incubated at 37° C. On day 2, the cells were transiently transfected with pNifty-Luc(InvivoGen, San Diego, Calif.), an NF-κB inducible reporter plasmid expressing the luciferase reporter gene (Schindler et al., Three NF-kappa B binding sites in the human E-selectin gene required for maximal tumor necrosis factor alpha-induced expression. Mol Cell Biol 1994, 14(9):5820-31) using an optimized 4:1 ratio by volume of FugeneHD transfection reagent (Promega, Madison, Wis.) to pNifty-Luc plasmid DNA (1 μg/mL). On day 3, the cells were stimulated with either test peptides or controls adjusted to a final concentration of 1 μg/mL using a NanoDrop spectrophotometer, ND1000 (Thermo Fisher Scientific). Synthetic di- and triacylated LP ligands, Pam2CSK4 and Pam3CSK4 (InvivoGen), were used as positive controls. TNF-α (InvivoGen) was also used as a transfection control that induces NF-κB independently of TLR2. On day 4 after 24 h of peptide stimulation, luciferase induced activity by the induction of NF-κB was measured. The medium was aspirated from the wells using an ELx405 SelectCW plate washer (BioTek, Winooski, Vt.), and 150 μg/mL D-luciferin (Gold Biotechnology, St. Louis, Mo.) was dispensed using the microplate dispensor. The plates were incubated at 37° C. for 5 min. The luminescence intensity was measured using the standard luminescence protocol on a Victor X4 multilabel plate reader equipped with a plate stacker for readout of multiple plates at a time (PerkinElmer, Waltham, Mass.). For each in vitro TLR2 bioassay, at least three different experiments were performed in triplicate (n≥3). Data were analyzed with GraphPad Prism software, and curves were generated with the appropriate nonlinear fit regression analysis.
Target sequence in this assay (O60603 21-784): as above

SU.86.86 cells = assay: Cytotoxicity assay (Dojindo CCK8 Kit); type: cell-based, human; conditions: 24 hours, 21 to 2690 nM
Procedure: SU.86.86 were treated with Compound 16 for 24 hours over a range of concentrations (40 to 512 ng/mL corresponding to 21 to 2690 nM). Pam2CSK4 was added to SU.86.86 for 24 hours over the same range of concentrations (40 to 512 ng/mL). Three different experiments were performed in triplicate (n≥3). Data were analyzed with GraphPad Prism software.

TLR2 [4] = molecular target: T1, TLR2; conditions: Huynh et al.; read-out: binding affinity (Ki); cited from earlier work
Target sequence in this assay (O60603 21-784, species assumed): as the sequence (O60603 21-784) above

**Q.** Which results are given for CCCCCCCCCCCCCCCC(=O)OCCSC[C@H](NC(=O)COCC(=O)NCCCOCCOCCOCCCNC(=O)c1ccc(C2=C(/C=C/C3=[N+](CCC)c4ccccc4C3(C)C)CCC/C2=C\C=C2\N(CCC)c3ccccc3C2(C)C)cc1)C(=O)NCC(=O)N[C@H](CO)C(=O)NCCCOCCOCCOCCCNC(=O)COCC(N)=O [Compound 16, IR780-Pego-Cys(S-[palmitoyloxyethyl])-Gly-DSer-PEGO-NH2]?
**A.** pKi (TLR2 [1]): 7.80; mean tumor fluorescence, unblocked tumor/blocked tumor ([2]; 100 nmol/kg i.v., blocked with 2 μmol/kg Pam2CSK4 (20-fold excess), 24 h): 2.67 fold; tumor fluorescence in blocked versus unblocked group ([2]; 100 nmol/kg i.v., blocked with 2 μmol/kg Pam2CSK4, 24 h post-injection): significant reduction in the ex vivo fluorescence signal; also recorded: significant reduction in the tumor fluorescence; tumor fluorescence signal by in vivo imaging ([2]; 24 h post-injection): retention of fluorescence signal in the tumor; pIC50 (TLR2 [3]; 0.001 ng/mL to 10 μg/mL, read-out: IC50, inhibition of TLR2 agonistic activity of Pam2CSK4): 6.44; agonist activity compared to TLR2 agonist controls (Pam2CSK4, Pam3CSK4, HKLM) (TLR2 [3]): significant decrease in agonist response; agonist activity compared to TLR2 agonist controls (Pam2CSK4, Pam3CSK4, HKLM) (TLR2 [3]; listed as compound 16): complete loss in agonist activity

**Q.** With CCCCCCCCCCCCCCCC(=O)OCCSC[C@H](NC(=O)COCC(=O)NCCCOCCOCCOCCCNC(C)=O)C(=O)NCC(=O)N[C@H](CO)C(=O)NCCCOCCOCCOCCCNC(=O)COCC(N)=O [Compound 14, Ac-Pego-Cys(S-[palmitoyloxyethyl])-Gly-DSer-PEGO-NH2] as the compound, how does the pKi (TLR2 [1]) read?
**A.** 7.66

**Q.** What about the pEC50 (TLR2 [3]; 0.001 ng/mL to 10 μg/mL, read-out: EC50, TLR2 agonistic activity) of the same compound?
**A.** 6.17

**Q.** And the “agonist activity compared to TLR2 agonist controls (Pam2CSK4, Pam3CSK4, HKLM)” value (TLR2 [3])?
**A.** significantly less agonist potency

**Q.** Which cell viability (SU.86.86 cells) does the source give for Pam2CSK4 [reference compound] here?
**A.** cell viability decreases at higher concentrations past 336 nM

**Q.** With CCCCCCCCCCCCCCCC(=O)OC[C@H](CSC[C@H](NC(=O)COCC(=O)NCCCOCCOCCOCCCNC(C)=O)C(=O)NCC(=O)N[C@H](CO)C(=O)NCCCOCCOCCOCCCNC(=O)COCC(N)=O)OC(=O)CCCCCCCCCCCCCCC [compound 10, reference compound] as the compound, how does the pKi (TLR2 [1]) read?
**A.** 7.04

**Q.** What about the pKi (TLR2 [4]) of the same compound?
**A.** 7.62
